Test results as given in patent US10772896B2, “Process for preparing a dry powder formulation comprising an anticholinergic, a corticosteroid and a beta-adrenergic” (CHIESI FARMACEUTICI S.P.A., priority 2015, dated 2020).

Tests used:
[1] = Aerosol performance by Next Generation Impactor (NGI); type: physicochemical
Description: After aerosolization of 3 doses from the inhaler device, the NGI apparatus was disassembled and the amounts of drug deposited in the stages were recovered by washing with a solvent mixture and then quantified by High-Performance Liquid Chromatography (HPLC).

[2] = Uniformity of distribution of the active ingredients in the blend (10 samples, HPLC); type: physicochemical; details: dry powder formulation of Example 2; mean value ± RSD
Description: The uniformity of distribution of the active ingredients was evaluated by withdrawing 10 samples from different parts of the blend and evaluated by HPLC

[3] = Batch CY (Cyclomix), reference powder formulation of WO 2015/004243
[4] = Batch MF (mechano-fusion), reference powder formulation of WO 2015/004243
[5] = dry powder formulation of Example 2, DPI of WO 2004/012801
[6] = dry powder formulation of Example 2, DPI of WO 2004/012801, 2.0-5.0 micron
[7] = dry powder formulation of Example 2, DPI of WO 2004/012801, particle size <= 5.0 micron
[8] = dry powder formulation of Example 2, multidose DPI of WO 2004/012801
[9] = pMDI HFA solution formulation of WO 2011/076843 (reference Example 4)

## C[N+]1(C)CCC(OC(=O)C(O)(c2ccccc2)C2CCCC2)C1 (stereo not drawn) [GB, Glycopyrronium bromide]
[1]; [3]
  Delivered Dose: 11.6 µg
  Extrafine Particle Fraction < 2 μm: 34.9%
  Extrafine Particle Mass < 2 μm: 4.0 µg
  Fine Particle Fraction: 57.2%
  Fine Particle Mass: 6.6 µg
  MMAD: 1.8 μm
  Mid Fine Particle Fraction: 22.3%
  Mid Fine Particle Mass: 2.6 µg
[1]; [4]
  Delivered Dose: 11.9 µg
  Extrafine Particle Fraction < 2 μm: 33.2%
  Extrafine Particle Mass < 2 μm: 4.0 µg
  Fine Particle Fraction: 53.8%
  Fine Particle Mass: 6.4 µg
  MMAD: 1.4 μm
  Mid Fine Particle Fraction: 20.6%
  Mid Fine Particle Mass: 2.5 µg
[1]; [5]
  Extrafine Particle Fraction < 1 μm: 9.8%
  Extrafine Particle Fraction < 2 μm: 26.4%
  Extrafine Particle Mass < 1 μm: 1.1 µg
  Extrafine Particle Mass < 2 μm: 2.9 µg
  Fine Particle Fraction: 48.1%
  MMAD: 1.9 μm
[1]; [6]
  Mid Fine Particle Fraction: 21.6%
  Mid Fine Particle Mass: 2.4 µg
[1]; [7]
  Fine Particle Mass: 5.4 µg
[1]; [8]
  Delivered Dose: 11.1 µg
[1]; [9]
  Delivered Dose: 10.6 µg
  Extrafine Particle Fraction < 2 μm: 40.2%
  Extrafine Particle Mass < 2 μm: 4.2 µg
  Fine Particle Fraction: 45.1%
  Fine Particle Mass: 4.8 µg
  MMAD: 1.0 μm
  Mid Fine Particle Fraction: 5.0%
  Mid Fine Particle Mass: 0.5 µg

## CCC(=O)OCC(=O)[C@@]1(OC(=O)CC)[C@@H](C)C[C@H]2[C@@H]3CCC4=CC(=O)C=C[C@]4(C)[C@@]3(Cl)[C@@H](O)C[C@@]21C [BDP, Beclometasone dipropionate]
[1]; [3]
  Delivered Dose: 90.6 µg
  Extrafine Particle Fraction < 2 μm: 53.9%
  Extrafine Particle Mass < 2 μm: 48.8 µg
  Fine Particle Fraction: 71.2%
  Fine Particle Mass: 64.5 µg
  MMAD: 1.1 μm
  Mid Fine Particle Fraction: 17.3%
  Mid Fine Particle Mass: 15.7 µg
[1]; [4]
  Delivered Dose: 95.7 µg
  Extrafine Particle Fraction < 2 μm: 52.3%
  Extrafine Particle Mass < 2 μm: 50.0 µg
  Fine Particle Fraction: 69.9%
  Fine Particle Mass: 66.9 µg
  MMAD: 1.1 μm
  Mid Fine Particle Fraction: 17.6%
  Mid Fine Particle Mass: 16.9 µg
[1]; [5]
  Extrafine Particle Fraction < 1 μm: 13.9%
  Extrafine Particle Fraction < 2 μm: 32.1%
  Extrafine Particle Mass < 1 μm: 12.4 µg
  Extrafine Particle Mass < 2 μm: 28.5 µg
  Fine Particle Fraction: 49.3%
  MMAD: 1.6 μm
[1]; [6]
  Mid Fine Particle Fraction: 17.1%
  Mid Fine Particle Mass: 15.2 µg
[1]; [7]
  Fine Particle Mass: 43.6 µg
[1]; [8]
  Delivered Dose: 88.5 µg
[1]; [9]
  Delivered Dose: 87.8 µg
  Extrafine Particle Fraction < 2 μm: 40.9%
  Extrafine Particle Mass < 2 μm: 35.9 µg
  Fine Particle Fraction: 46.0%
  Fine Particle Mass: 40.4 µg
  MMAD: 1.0 μm
  Mid Fine Particle Fraction: 5.2%
  Mid Fine Particle Mass: 4.5 µg
[2]
  Uniformity of distribution: 100.5 (±1.8)
